Our source for the IC50 and Ki values is ChEMBL document CHEMBL1909046, “DrugMatrix in vitro pharmacology data”.

For test [1], the target named is T1, Alpha-1A adrenergic receptor (Rattus norvegicus, UniProt P43140).
T1 sequence (P43140 whole entry): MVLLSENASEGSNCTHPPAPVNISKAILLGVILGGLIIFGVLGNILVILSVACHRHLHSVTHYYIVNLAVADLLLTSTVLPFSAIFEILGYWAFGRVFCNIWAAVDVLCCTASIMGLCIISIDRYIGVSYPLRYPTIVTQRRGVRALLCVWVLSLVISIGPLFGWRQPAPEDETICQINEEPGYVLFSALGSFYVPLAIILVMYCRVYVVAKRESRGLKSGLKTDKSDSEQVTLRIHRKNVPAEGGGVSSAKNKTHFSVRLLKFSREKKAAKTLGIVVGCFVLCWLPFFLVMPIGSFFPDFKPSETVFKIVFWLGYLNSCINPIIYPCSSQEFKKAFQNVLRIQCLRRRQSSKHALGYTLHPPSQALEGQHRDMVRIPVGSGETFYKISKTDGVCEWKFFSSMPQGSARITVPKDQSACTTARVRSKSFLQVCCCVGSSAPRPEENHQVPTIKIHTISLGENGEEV
The test is described as follows: DRUGMATRIX: Alpha-1A adrenergic receptor radioligand binding (ligand: prazosin). Type of test: cell membranes, Wistar, Submaxillary gland, Membrane. Particulars: Not Active = under 50% inhibition at 10 µM.

The target in test [2] is Sodium-dependent noradrenaline transporter (Homo sapiens, UniProt P23975). Put plainly: DRUGMATRIX: Norepinephrine Transporter radioligand binding (ligand: [125I] RTI-55). The format is cell membranes, MDCK, Membrane. Particulars: mdck; Not Active = under 50% inhibition at 10 µM.
Test [3] concerns the target C-C chemokine receptor type 5 (Homo sapiens, UniProt P51681). Type of test: cell membranes, Membrane. Conditions: hek293. Note: in other assays of this panel Not Active means under 50% inhibition at 10 µM.
For test [4], the target named is T2, C-X-C chemokine receptor type 2 (Homo sapiens, UniProt P25025). Note: in other assays of this panel Not Active means under 50% inhibition at 10 µM.
T2 sequence (P25025 whole entry): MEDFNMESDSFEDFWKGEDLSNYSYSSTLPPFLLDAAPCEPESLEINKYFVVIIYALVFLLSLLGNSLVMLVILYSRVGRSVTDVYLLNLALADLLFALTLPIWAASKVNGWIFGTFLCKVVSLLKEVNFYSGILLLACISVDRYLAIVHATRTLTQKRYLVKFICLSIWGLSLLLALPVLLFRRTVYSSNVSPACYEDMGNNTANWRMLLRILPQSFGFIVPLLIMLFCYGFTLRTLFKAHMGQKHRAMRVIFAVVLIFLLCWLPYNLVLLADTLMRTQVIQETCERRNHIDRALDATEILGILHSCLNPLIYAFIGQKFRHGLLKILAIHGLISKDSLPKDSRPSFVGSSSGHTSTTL
The format is cell membranes, Membrane. Particulars: cho-k1.

A short description of test [5]: DRUGMATRIX: Platelet-Derived Growth Factor (PDGF) radioligand binding (ligand: [125I] PDGF). Particulars: nih3t3; Not Active = under 50% inhibition at 10 µM. Type of test: cell-based.
Test [6] addresses Mitogen-activated protein kinase 14 (Homo sapiens, UniProt Q16539). On the set-up: species or system Escherichia coli.
The target in the next test is Acetylcholinesterase (Homo sapiens, UniProt P22303). The test is described as follows: DRUGMATRIX: Acetylcholinesterase enzyme inhibition (substrate: acetylthiocholine). Conditions: hek293; Not Active = under 50% inhibition at 10 µM. Type of test: cell-based, HEK293.
Sequence of Acetylcholinesterase (P22303 whole entry): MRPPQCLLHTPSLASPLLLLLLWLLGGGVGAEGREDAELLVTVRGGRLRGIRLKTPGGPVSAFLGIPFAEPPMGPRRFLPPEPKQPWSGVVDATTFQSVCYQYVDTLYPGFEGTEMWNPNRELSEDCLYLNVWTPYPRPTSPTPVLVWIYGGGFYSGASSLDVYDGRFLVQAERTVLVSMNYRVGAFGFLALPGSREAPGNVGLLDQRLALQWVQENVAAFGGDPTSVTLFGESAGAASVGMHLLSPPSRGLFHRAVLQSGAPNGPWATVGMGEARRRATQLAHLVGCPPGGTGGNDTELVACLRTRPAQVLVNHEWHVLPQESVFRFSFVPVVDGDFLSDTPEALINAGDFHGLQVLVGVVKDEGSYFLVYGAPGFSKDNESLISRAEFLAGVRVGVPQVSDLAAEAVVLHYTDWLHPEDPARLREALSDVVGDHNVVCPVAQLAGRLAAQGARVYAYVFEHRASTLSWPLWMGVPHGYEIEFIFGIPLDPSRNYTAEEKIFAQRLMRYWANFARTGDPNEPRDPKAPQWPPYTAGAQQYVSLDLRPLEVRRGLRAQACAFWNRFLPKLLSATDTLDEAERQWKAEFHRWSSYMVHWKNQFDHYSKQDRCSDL

Sequence of Sodium-dependent noradrenaline transporter (P23975 whole entry): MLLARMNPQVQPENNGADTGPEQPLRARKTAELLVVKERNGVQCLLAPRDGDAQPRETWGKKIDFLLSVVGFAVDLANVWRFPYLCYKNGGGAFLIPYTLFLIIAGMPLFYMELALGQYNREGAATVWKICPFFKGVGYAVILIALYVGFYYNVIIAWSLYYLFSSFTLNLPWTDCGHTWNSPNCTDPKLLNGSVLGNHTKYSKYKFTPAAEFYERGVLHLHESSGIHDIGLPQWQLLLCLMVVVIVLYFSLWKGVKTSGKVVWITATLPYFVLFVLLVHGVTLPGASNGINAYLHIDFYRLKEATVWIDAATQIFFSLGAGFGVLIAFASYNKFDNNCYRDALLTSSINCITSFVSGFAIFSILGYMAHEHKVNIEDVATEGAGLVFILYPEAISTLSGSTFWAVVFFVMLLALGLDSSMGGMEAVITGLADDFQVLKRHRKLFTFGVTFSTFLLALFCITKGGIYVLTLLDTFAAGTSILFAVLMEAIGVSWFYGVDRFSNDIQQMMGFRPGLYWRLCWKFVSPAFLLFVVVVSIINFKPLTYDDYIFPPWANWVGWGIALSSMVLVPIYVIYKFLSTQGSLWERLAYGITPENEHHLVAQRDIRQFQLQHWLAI
Sequence of Mitogen-activated protein kinase 14 (Q16539 whole entry): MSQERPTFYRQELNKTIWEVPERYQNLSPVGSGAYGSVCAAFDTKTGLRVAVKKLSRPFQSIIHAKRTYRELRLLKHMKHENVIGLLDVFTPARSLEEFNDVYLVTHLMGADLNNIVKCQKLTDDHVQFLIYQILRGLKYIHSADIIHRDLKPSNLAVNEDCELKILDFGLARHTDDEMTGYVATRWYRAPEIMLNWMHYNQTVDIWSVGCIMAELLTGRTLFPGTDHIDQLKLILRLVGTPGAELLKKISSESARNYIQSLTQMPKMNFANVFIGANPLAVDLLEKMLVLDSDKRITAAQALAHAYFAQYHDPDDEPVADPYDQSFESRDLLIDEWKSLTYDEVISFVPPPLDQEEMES
Sequence of C-C chemokine receptor type 5 (P51681 whole entry): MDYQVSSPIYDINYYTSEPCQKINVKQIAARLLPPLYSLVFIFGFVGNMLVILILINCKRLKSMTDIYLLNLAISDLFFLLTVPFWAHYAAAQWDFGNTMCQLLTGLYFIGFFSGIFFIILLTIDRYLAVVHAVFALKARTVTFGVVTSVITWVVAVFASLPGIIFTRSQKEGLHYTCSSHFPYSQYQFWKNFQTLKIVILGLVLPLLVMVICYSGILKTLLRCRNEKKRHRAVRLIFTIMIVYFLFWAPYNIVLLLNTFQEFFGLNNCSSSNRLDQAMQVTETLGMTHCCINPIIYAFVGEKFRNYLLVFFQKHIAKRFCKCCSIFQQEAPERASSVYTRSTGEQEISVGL

For the compound `COc1cc2nc(N3CCN(C(=O)C4COc5ccccc5O4)CC3)nc(N)c2cc1OC` (stereo unspecified) [DOXAZOSIN], the IC50 in test [1] (read-out: IC50) is 1.55 nM; in test [2] it was “Not Active”; in test [3], “Not Active”; in test [4] it was “Not Active”; in test [5], “Not Active”; in test [6], “Not Active”. The IC50 result against Acetylcholinesterase is given as “Not Active”. The results for the Ki in test [1] (read-out: Ki) and in test [5] were 0.628 nM and “Not Active”, respectively.

Consider `C[C@H](CS)C(=O)N1CCC[C@H]1C(=O)O` [CAPTOPRIL], for which the IC50 result in test [1], in test [2], in test [3], in test [4], in test [5] and in test [6] was “Not Active” in each case. For the same compound, on Acetylcholinesterase, the IC50 result is “Not Active”. Further, the Ki entry in test [5] is listed as “Not Active”.

As to `CC(C)(Oc1ccc(Cl)cc1)C(=O)O` [CLOFIBRIC ACID], the IC50 result in test [1], in test [2], in test [3], in test [4], in test [5] and in test [6] was “Not Active” throughout. Moreover, at Acetylcholinesterase, the IC50 result was “Not Active”. Also, in test [5], the inhibition constant (Ki) entry is recorded as “Not Active”.

Take `OC(Cn1cncn1)(Cn1cncn1)c1ccc(F)cc1F` [FLUCONAZOLE]: the concentration for half-maximal inhibition (IC50) result in test [1], in test [2], in test [3], in test [4], in test [5] and in test [6] was “Not Active” in each case. On Acetylcholinesterase, the IC50 entry was “Not Active”. Further, in test [5], the inhibitory constant (Ki) entry is listed as “Not Active”.

For the compound `O=C1CC[C@@H](N2C(=O)c3ccccc3C2=O)C(=O)N1`, the concentration for half-maximal inhibition (IC50) entry in test [1], in test [2], in test [3], in test [4], in test [5] and in test [6] was “Not Active” in each case. Besides, the half-inhibitory concentration (IC50) entry at Acetylcholinesterase is on record as “Not Active”. Further, in test [5], the Ki result was “Not Active”.

In general, IC50 refers to the point on the concentration scale where inhibition reaches its midpoint. In general, Ki refers to a dissociation constant, usually derived from enzyme kinetics or from competition with a known ligand.
